What was measured:
Assay in all cases: radiometric filter-binding kinase assay
[1] = tested on: AKT1 (human), P31749 [S473D]
AURKA (human) = AURKA (human) (UniProt O14965)
BRSK1 (human) = BRSK1 (human) (UniProt Q8TDC3)
DYRK2 (human) = DYRK2 (human) (UniProt Q92630)
EEF2K (human) = EEF2K (human) (UniProt O00418)
EPHA2 (human) = EPHA2 (human) (UniProt P29317)
EPHB3 (human) = EPHB3 (human) (UniProt P54753)
ERBB4 (human) = ERBB4 (human) (UniProt Q15303)
GSK3B (human) = GSK3B (human) (UniProt P49841)
HIPK3 (human) = HIPK3 (human) (UniProt Q9H422)
Sequence of HIPK3 (human) (Q9H422 whole entry, looked up): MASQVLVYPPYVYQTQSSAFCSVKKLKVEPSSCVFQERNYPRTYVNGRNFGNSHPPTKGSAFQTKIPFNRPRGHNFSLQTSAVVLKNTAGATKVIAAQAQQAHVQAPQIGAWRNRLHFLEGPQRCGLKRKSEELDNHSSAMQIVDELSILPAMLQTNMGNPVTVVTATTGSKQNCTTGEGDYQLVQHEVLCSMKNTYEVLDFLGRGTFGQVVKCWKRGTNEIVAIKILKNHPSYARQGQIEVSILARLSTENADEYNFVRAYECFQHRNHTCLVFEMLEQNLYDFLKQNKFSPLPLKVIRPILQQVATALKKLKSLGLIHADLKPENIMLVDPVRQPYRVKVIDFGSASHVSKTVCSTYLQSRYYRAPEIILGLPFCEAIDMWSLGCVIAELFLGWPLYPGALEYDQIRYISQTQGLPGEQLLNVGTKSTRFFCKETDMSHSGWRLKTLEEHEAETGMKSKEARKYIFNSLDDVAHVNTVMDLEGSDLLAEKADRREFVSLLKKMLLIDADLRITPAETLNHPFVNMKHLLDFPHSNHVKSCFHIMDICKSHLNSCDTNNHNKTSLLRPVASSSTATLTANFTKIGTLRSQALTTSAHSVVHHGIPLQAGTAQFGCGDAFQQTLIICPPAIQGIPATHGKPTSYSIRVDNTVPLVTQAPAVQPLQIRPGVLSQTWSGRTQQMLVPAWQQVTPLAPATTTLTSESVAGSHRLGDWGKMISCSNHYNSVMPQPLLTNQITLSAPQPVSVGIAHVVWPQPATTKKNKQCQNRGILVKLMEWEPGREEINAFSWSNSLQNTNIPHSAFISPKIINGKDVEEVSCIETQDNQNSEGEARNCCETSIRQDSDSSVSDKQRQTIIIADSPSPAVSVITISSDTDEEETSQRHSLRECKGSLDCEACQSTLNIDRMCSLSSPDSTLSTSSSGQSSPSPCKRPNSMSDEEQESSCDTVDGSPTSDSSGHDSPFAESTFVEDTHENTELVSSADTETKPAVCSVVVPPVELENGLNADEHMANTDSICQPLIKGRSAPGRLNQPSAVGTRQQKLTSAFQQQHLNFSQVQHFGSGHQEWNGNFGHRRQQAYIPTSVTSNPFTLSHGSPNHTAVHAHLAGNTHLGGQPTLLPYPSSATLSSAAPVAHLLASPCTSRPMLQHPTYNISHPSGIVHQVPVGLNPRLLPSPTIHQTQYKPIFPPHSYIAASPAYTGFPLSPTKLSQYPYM

INSR (human) = INSR (human) (UniProt P06213)
IRAK4 (human) = IRAK4 (human) (UniProt Q9NWZ3)
MAP2K2 (human) = MAP2K2 (human) (UniProt P36507); details: compound 10.0 µM
MAP2K6 (human) = MAP2K6 (human) (UniProt P52564); details: compound 10.0 µM
MAP3K11 (human) = MAP3K11 (human) (UniProt Q16584)
MAP3K7 TAB1 (human) = MAP3K7 TAB1 (human) (UniProt Q15750+O43318); details: compound 10.0 µM
MAP3K9 (human) = MAP3K9 (human) (UniProt P80192)
MAPK12 (human) = MAPK12 (human) (UniProt P53778)
MAPK9 (human) = MAPK9 (human) (UniProt P45984)
MAPKAPK2 (human) = MAPKAPK2 (human) (UniProt P49137)
MARK1 (human) = MARK1 (human) (UniProt Q9P0L2); details: compound 10.0 µM
MARK4 (human) = MARK4 (human) (UniProt Q96L34)
Sequence of MARK4 (human) (Q96L34 whole entry, looked up): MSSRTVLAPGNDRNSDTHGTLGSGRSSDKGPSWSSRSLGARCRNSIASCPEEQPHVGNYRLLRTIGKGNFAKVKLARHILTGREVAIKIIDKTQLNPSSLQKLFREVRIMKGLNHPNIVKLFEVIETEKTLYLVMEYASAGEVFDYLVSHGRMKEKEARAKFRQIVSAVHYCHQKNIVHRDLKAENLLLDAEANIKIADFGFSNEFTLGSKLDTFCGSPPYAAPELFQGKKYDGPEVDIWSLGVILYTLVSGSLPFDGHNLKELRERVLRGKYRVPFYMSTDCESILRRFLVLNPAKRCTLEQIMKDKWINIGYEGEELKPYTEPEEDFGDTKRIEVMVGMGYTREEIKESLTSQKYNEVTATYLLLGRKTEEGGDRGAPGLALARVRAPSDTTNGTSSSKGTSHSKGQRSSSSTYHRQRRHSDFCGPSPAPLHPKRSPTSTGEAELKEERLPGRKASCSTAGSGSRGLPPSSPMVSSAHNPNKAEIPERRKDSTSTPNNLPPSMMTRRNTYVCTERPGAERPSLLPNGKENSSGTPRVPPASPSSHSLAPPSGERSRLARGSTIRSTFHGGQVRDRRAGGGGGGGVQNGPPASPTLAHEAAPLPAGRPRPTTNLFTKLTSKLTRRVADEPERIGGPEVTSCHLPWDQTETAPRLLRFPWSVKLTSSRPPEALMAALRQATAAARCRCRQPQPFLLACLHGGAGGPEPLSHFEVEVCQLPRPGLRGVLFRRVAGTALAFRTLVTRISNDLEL

MELK (human) = MELK (human) (UniProt Q14680)
Sequence of MELK (human) (Q14680 whole entry, looked up): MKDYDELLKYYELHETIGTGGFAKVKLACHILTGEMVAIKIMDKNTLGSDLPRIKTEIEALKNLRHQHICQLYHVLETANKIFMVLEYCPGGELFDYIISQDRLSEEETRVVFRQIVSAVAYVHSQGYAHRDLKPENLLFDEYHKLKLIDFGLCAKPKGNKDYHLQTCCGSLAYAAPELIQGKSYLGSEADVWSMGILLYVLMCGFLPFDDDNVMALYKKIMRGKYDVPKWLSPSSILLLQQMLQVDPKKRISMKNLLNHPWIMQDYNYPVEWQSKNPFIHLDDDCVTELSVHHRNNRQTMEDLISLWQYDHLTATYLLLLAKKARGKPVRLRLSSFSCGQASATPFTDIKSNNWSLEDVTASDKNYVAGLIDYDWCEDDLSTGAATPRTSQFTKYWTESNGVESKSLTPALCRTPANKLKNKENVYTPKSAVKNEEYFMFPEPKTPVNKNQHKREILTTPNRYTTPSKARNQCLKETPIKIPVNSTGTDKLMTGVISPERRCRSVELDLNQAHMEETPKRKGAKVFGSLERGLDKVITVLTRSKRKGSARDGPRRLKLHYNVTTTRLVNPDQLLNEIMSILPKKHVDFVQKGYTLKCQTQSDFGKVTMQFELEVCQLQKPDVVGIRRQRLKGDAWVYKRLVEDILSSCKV

MST4 (human) = MST4 (human) (UniProt Q9P289)
NTRK1 (human) = NTRK1 (human) (UniProt P04629); details: compound 10.0 µM
PAK4 (human) = PAK4 (human) (UniProt O96013)
Sequence of PAK4 (human) (O96013 whole entry, looked up): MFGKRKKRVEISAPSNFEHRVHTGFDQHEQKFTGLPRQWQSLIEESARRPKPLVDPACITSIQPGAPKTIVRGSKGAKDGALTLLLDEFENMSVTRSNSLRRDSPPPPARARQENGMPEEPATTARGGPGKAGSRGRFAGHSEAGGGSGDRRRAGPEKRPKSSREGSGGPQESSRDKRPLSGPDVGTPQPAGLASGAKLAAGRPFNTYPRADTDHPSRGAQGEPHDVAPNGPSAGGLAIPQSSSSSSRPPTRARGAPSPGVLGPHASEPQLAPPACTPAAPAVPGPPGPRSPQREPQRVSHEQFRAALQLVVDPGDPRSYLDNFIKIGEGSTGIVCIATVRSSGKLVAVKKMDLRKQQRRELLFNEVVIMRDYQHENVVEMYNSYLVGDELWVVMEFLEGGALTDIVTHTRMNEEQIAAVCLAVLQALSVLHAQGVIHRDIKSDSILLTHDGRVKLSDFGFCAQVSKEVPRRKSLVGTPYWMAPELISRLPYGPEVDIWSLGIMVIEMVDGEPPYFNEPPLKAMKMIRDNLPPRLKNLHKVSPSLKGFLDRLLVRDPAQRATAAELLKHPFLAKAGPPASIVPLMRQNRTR

PAK6 (human) = PAK6 (human) (UniProt Q9NQU5)
PIM1 (human) = PIM1 (human) (UniProt P11309)
Sequence of PIM1 (human) (P11309 whole entry, looked up): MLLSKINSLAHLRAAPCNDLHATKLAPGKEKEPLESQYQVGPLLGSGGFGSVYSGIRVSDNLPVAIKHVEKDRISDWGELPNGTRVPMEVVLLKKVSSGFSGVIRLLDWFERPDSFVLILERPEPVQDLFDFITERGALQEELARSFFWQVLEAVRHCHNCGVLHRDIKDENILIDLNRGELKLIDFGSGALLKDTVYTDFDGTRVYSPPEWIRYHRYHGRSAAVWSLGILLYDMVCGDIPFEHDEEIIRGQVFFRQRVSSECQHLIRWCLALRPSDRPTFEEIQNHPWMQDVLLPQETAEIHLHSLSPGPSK

PKN2 (human) = PKN2 (human) (UniProt Q16513)
PRKCA (human) = PRKCA (human) (UniProt P17252)
PRKCZ (human) = PRKCZ (human) (UniProt Q05513)
[2] = target: STK11 CAB39 STRADA (human) (UniProt Q9Y376+Q7RTN6+Q15831)
MARK2 (human) = MARK2 (human) (UniProt Q7KZI7)
NUAK1 (human) = NUAK1 (human) (UniProt O60285)

Sequence of AKT1 (human), P31749 [S473D] (P31749 whole entry S473D, looked up): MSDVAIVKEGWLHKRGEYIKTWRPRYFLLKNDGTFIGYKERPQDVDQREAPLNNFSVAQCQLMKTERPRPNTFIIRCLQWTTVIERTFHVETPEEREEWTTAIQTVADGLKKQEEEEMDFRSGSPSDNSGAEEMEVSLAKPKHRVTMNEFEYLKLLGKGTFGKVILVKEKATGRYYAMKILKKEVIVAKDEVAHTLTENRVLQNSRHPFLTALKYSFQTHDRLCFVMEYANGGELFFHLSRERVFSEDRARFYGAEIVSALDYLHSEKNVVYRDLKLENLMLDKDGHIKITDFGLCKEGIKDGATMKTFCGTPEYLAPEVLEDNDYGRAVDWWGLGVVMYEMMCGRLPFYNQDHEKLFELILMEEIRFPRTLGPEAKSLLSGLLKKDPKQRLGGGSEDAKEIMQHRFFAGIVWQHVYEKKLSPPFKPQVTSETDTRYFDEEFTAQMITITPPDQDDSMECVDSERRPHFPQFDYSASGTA
Sequence of EPHB3 (human) (P54753 whole entry, looked up): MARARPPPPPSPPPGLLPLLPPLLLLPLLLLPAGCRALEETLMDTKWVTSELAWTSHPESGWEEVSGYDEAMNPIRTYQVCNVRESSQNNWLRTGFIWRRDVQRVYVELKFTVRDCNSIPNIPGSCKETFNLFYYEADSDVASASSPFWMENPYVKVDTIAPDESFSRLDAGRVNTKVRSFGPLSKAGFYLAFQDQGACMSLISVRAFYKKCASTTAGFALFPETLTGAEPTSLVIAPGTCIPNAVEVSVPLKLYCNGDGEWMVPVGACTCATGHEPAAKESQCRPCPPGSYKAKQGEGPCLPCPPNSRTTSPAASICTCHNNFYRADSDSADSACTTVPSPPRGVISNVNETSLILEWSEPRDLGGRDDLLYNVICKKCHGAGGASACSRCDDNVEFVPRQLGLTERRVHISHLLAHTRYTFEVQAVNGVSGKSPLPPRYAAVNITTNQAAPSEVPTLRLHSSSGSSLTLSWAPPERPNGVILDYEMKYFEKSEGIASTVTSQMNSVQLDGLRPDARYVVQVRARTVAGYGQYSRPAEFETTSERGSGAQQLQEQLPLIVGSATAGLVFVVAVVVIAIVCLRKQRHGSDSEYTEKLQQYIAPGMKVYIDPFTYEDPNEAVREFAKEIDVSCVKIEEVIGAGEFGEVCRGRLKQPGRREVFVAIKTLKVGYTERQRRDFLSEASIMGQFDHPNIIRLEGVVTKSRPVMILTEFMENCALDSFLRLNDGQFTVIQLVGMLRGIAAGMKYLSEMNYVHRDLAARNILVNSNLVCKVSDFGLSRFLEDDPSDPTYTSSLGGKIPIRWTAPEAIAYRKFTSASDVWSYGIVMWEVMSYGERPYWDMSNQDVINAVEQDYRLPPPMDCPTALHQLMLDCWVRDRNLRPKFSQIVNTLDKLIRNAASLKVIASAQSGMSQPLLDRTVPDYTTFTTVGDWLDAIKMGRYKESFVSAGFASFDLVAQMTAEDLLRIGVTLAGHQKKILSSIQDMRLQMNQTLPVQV

Work on `CCOC(=O)c1ccc(N2NC(=O)/C(=C/c3ccc([N+](=O)[O-])o3)C2=O)cc1` yielded a residual activity ([1]; compound 10.0 µM) of 79%, a residual activity (AURKA (human); compound 10.0 µM) of 76% and a residual activity (BRSK1 (human); compound 10.0 µM) of 86%. For the same compound, the residual activity (DYRK2 (human); compound 10.0 µM) was 54%, the residual activity (EEF2K (human); compound 10.0 µM) was 97% and the residual activity (EPHA2 (human); compound 10.0 µM) was 90%. For the same compound, the residual activity (EPHB3 (human); compound 10.0 µM) was 100%, the residual activity (ERBB4 (human); compound 10.0 µM) was 91% and the residual activity (GSK3B (human); compound 10.0 µM) was 106%. It also gave a residual activity (HIPK3 (human); compound 10.0 µM) of 103%, a residual activity (INSR (human); compound 10.0 µM) of 99% and a residual activity (IRAK4 (human); compound 10.0 µM) of 112%. For the same compound, the residual activity (MAP2K2 (human)) was 9%, the residual activity (MAP2K6 (human)) was 87% and the residual activity (MAP3K11 (human); compound 10.0 µM) was 100%. For the same compound, the residual activity (MAP3K7 TAB1 (human)) was 102%, the residual activity (MAP3K9 (human); compound 10.0 µM) was 78% and the residual activity (MAPK12 (human); compound 10.0 µM) was 112%. For the same compound, the residual activity (MAPK9 (human); compound 10.0 µM) was 93%, the residual activity (MAPKAPK2 (human); compound 10.0 µM) was 78% and the residual activity (MARK1 (human)) was 62%. The residual activity (MARK4 (human); compound 10.0 µM) was 52%, the residual activity (MELK (human); compound 10.0 µM) was 82% and the residual activity (MST4 (human); compound 10.0 µM) was 87%. For the same compound, the residual activity (NTRK1 (human)) was 104%, the residual activity (PAK4 (human); compound 10.0 µM) was 55% and the residual activity (PAK6 (human); compound 10.0 µM) was 133%. For the same compound, the residual activity (PIM1 (human); compound 10.0 µM) was 109%, the residual activity (PKN2 (human); compound 10.0 µM) was 105% and the residual activity (PRKCA (human); compound 10.0 µM) was 96%. For the same compound, the residual activity (PRKCZ (human); compound 10.0 µM) was 112% and the residual activity ([2]; compound 10.0 µM) was 134%.
For `CN1C(=O)[C@@H](Cc2c[nH]c3ccccc23)NC1=S`, the residual activity ([1]; compound 1.0 µM) was 96%, the residual activity ([1]; compound 10.0 µM) was 91% and the residual activity (AURKA (human); compound 1.0 µM) was 101%. For the same compound, the residual activity (AURKA (human); compound 10.0 µM) was 102%, the residual activity (BRSK1 (human); compound 1.0 µM) was 101% and the residual activity (BRSK1 (human); compound 10.0 µM) was 103%. It also gave a residual activity (DYRK2 (human); compound 1.0 µM) of 105%, a residual activity (DYRK2 (human); compound 10.0 µM) of 107% and a residual activity (EEF2K (human); compound 1.0 µM) of 83%. For the same compound, the residual activity (EEF2K (human); compound 10.0 µM) was 75%, the residual activity (EPHA2 (human); compound 1.0 µM) was 102% and the residual activity (EPHA2 (human); compound 10.0 µM) was 96%. The residual activity (EPHB3 (human); compound 1.0 µM) was 112%, the residual activity (EPHB3 (human); compound 10.0 µM) was 104% and the residual activity (ERBB4 (human); compound 1.0 µM) was 109%. For the same compound, the residual activity (ERBB4 (human); compound 10.0 µM) was 104%, the residual activity (GSK3B (human); compound 1.0 µM) was 110% and the residual activity (GSK3B (human); compound 10.0 µM) was 101%. The residual activity (HIPK3 (human); compound 1.0 µM) was 111%, the residual activity (HIPK3 (human); compound 10.0 µM) was 102% and the residual activity (INSR (human); compound 1.0 µM) was 88%. It also gave a residual activity (INSR (human); compound 10.0 µM) of 106%, a residual activity (IRAK4 (human); compound 1.0 µM) of 109% and a residual activity (IRAK4 (human); compound 10.0 µM) of 99%. For the same compound, the residual activity (MAP3K11 (human); compound 1.0 µM) was 109%, the residual activity (MAP3K11 (human); compound 10.0 µM) was 109% and the residual activity (MAP3K9 (human); compound 1.0 µM) was 100%. For the same compound, the residual activity (MAP3K9 (human); compound 10.0 µM) was 96%, the residual activity (MAPK12 (human); compound 1.0 µM) was 111% and the residual activity (MAPK12 (human); compound 10.0 µM) was 101%. It also gave a residual activity (MAPK9 (human); compound 1.0 µM) of 85%, a residual activity (MAPK9 (human); compound 10.0 µM) of 88% and a residual activity (MAPKAPK2 (human); compound 1.0 µM) of 85%. For the same compound, the residual activity (MAPKAPK2 (human); compound 10.0 µM) was 96%, the residual activity (MARK2 (human); compound 1.0 µM) was 110% and the residual activity (MARK2 (human); compound 10.0 µM) was 109%. For the same compound, the residual activity (MARK4 (human); compound 1.0 µM) was 98%, the residual activity (MARK4 (human); compound 10.0 µM) was 96% and the residual activity (MELK (human); compound 1.0 µM) was 88%. For the same compound, the residual activity (MELK (human); compound 10.0 µM) was 89%, the residual activity (MST4 (human); compound 1.0 µM) was 103% and the residual activity (MST4 (human); compound 10.0 µM) was 112%. It also gave a residual activity (NUAK1 (human); compound 1.0 µM) of 108%, a residual activity (NUAK1 (human); compound 10.0 µM) of 101% and a residual activity (PAK4 (human); compound 1.0 µM) of 95%. It also gave a residual activity (PAK4 (human); compound 10.0 µM) of 97%, a residual activity (PAK6 (human); compound 1.0 µM) of 93% and a residual activity (PAK6 (human); compound 10.0 µM) of 99%. The residual activity (PIM1 (human); compound 1.0 µM) was 87%, the residual activity (PIM1 (human); compound 10.0 µM) was 94% and the residual activity (PKN2 (human); compound 1.0 µM) was 91%. For the same compound, the residual activity (PKN2 (human); compound 10.0 µM) was 90%, the residual activity (PRKCA (human); compound 1.0 µM) was 97% and the residual activity (PRKCA (human); compound 10.0 µM) was 96%. For the same compound, the residual activity (PRKCZ (human); compound 1.0 µM) was 70%, the residual activity (PRKCZ (human); compound 10.0 µM) was 83% and the residual activity ([2]; compound 1.0 µM) was 111%. The residual activity ([2]; compound 10.0 µM) was 110%.
Work on `O=C(O)c1cc(N=Nc2ccc(S(=O)(=O)Nc3ccccn3)cc2)ccc1O` yielded a residual activity ([1]; compound 1.0 µM) of 112%, a residual activity ([1]; compound 10.0 µM) of 106% and a residual activity (AURKA (human); compound 10.0 µM) of 100%. The residual activity (BRSK1 (human); compound 1.0 µM) was 97%, the residual activity (BRSK1 (human); compound 10.0 µM) was 92% and the residual activity (DYRK2 (human); compound 1.0 µM) was 99%. The residual activity (DYRK2 (human); compound 10.0 µM) was 79%, the residual activity (EEF2K (human); compound 1.0 µM) was 95% and the residual activity (EEF2K (human); compound 10.0 µM) was 109%. It also gave a residual activity (EPHA2 (human); compound 1.0 µM) of 119%, a residual activity (EPHB3 (human); compound 1.0 µM) of 102% and a residual activity (EPHB3 (human); compound 10.0 µM) of 118%. The residual activity (ERBB4 (human); compound 1.0 µM) was 100%, the residual activity (ERBB4 (human); compound 10.0 µM) was 77% and the residual activity (GSK3B (human); compound 1.0 µM) was 101%. For the same compound, the residual activity (GSK3B (human); compound 10.0 µM) was 93%, the residual activity (HIPK3 (human); compound 1.0 µM) was 98% and the residual activity (HIPK3 (human); compound 10.0 µM) was 103%. It also gave a residual activity (INSR (human); compound 1.0 µM) of 101%, a residual activity (INSR (human); compound 10.0 µM) of 97% and a residual activity (IRAK4 (human); compound 1.0 µM) of 104%. It also gave a residual activity (IRAK4 (human); compound 10.0 µM) of 97%, a residual activity (MAP3K11 (human); compound 10.0 µM) of 71% and a residual activity (MAP3K9 (human); compound 1.0 µM) of 105%. For the same compound, the residual activity (MAP3K9 (human); compound 10.0 µM) was 89%, the residual activity (MAPK12 (human); compound 1.0 µM) was 97% and the residual activity (MAPK12 (human); compound 10.0 µM) was 100%. It also gave a residual activity (MAPK9 (human); compound 1.0 µM) of 128%, a residual activity (MAPK9 (human); compound 10.0 µM) of 117% and a residual activity (MAPKAPK2 (human); compound 1.0 µM) of 100%. It also gave a residual activity (MAPKAPK2 (human); compound 10.0 µM) of 106%, a residual activity (MARK2 (human); compound 1.0 µM) of 108% and a residual activity (MARK2 (human); compound 10.0 µM) of 107%. The residual activity (MARK4 (human); compound 1.0 µM) was 98%, the residual activity (MARK4 (human); compound 10.0 µM) was 89% and the residual activity (MELK (human); compound 1.0 µM) was 113%. The residual activity (MELK (human); compound 10.0 µM) was 101%, the residual activity (MST4 (human); compound 1.0 µM) was 102% and the residual activity (MST4 (human); compound 10.0 µM) was 104%. It also gave a residual activity (NUAK1 (human); compound 1.0 µM) of 107%, a residual activity (NUAK1 (human); compound 10.0 µM) of 86% and a residual activity (PAK4 (human); compound 1.0 µM) of 89%. For the same compound, the residual activity (PAK4 (human); compound 10.0 µM) was 76%, the residual activity (PAK6 (human); compound 1.0 µM) was 99% and the residual activity (PAK6 (human); compound 10.0 µM) was 99%. The residual activity (PIM1 (human); compound 1.0 µM) was 88%, the residual activity (PIM1 (human); compound 10.0 µM) was 44% and the residual activity (PKN2 (human); compound 1.0 µM) was 94%. For the same compound, the residual activity (PKN2 (human); compound 10.0 µM) was 90%, the residual activity (PRKCA (human); compound 1.0 µM) was 90% and the residual activity (PRKCA (human); compound 10.0 µM) was 85%. For the same compound, the residual activity (PRKCZ (human); compound 1.0 µM) was 96%, the residual activity (PRKCZ (human); compound 10.0 µM) was 103% and the residual activity ([2]; compound 1.0 µM) was 124%. It also gave a residual activity ([2]; compound 10.0 µM) of 117%.
